Assay results taken from patent US20070218016A1, “Use of Aroma Substance Mixtures as Agents Against Bad Breath” (SYMRISE GMBH & CO. KG, priority 2004, published 2007).

Tested on: sterile liquid medium inoculated with fresh morning saliva
Experiment: In vitro test for reduction of bad breath (inoculated medium smelled by a panel of testers)
Format: cell-based
Conditions: 0.05% added to inoculated samples, incubated at 37° C. for some days
Method: In Vitro Test for Reduction of Bad Breath
The test is based on the work of Goldberg and Rosenberg (Production of Oral Malodor in an in vitro System, S. Goldberg and M. Rosenberg, pp. 143-150, in: Bad Breath—A Multidisciplinary Approach, eds: D. van Steenberghe, M. Rosenberg, Leuven University Press, 1996) and was adapted for better reproducibility.
A sterile liquid medium inoculated with fresh morning saliva is incubated at 37° C. for some days and then smelled by a panel of testers.
An intensive, typical bad breath odour had formed. Non-inoculated controls have only a weak smell of the medium.
Triclosan® (5-chloro-2-(2,4-dichlorophenoxy)phenol) was added to inoculated samples in a concentration of 0.05% as a control for the tests.
By addition of in each case 0.01% of the mixtures E-1 to E-6 according to the invention (see Table 1) to inoculated samples, no smell—analogously to Triclosan®—was to be found after the incubation time. This value also corresponds to the minimum active concentration.
If 0.05% of a mixture according to the invention is added to the inoculated medium only one hour before the sensory evaluation, an unpleasant mixed smell of bad breath and a weak note of the mixture according to the invention is to be observed.

Oc1cc(Cl)ccc1Oc1ccc(Cl)cc1Cl [Triclosan, 5-chloro-2-(2,4-dichlorophenoxy)phenol]
smell after the incubation: same weak smell of the medium as the non-inoculated samples
